Consider 5 compounds from ChEMBL document CHEMBL1127110, “Novel polyamide inducers of HL-60 cellular differentiation” (Bioorg Med Chem Lett, 1993).

The subject of the assay is HL-60. The assay is described as follows: The compound was evaluated in vitro for cytotoxicity against HL-60 cell lines. Format: functional, cell-based. The note with it: Homo sapiens.

SMILES strings stand for the structures. Some results are limits rather than exact numbers.

Compound `CC(=O)NCCCCCCNC(C)=O` [HEXAMETHYLENEBISACETAMIDE] came in with an IC50 of 4 mM. The result for `CC(=O)NCCNC(=O)CCNC(C)=O` reads over 16 mM; that for `CC(=O)NCCCCN(CCCNC(C)=O)C(C)=O`, over 16 mM; that for `CC(=O)NCCCN(CCCCN(CCCNC(C)=O)C(C)=O)C(C)=O`, over 16 mM. With `CC(=O)NCCC(=O)NCCNC(=O)CCNC(C)=O` the figure was 6 mM.

What is called IC50 is the concentration needed to halve the response being measured.
